Patent publication EP0016746A1, “New therapeutically active spirocycloalkylamines and pharmaceutical preparations comprising such compounds” (priority 1979, dated 1980)

Assays:
[1] = system: central dopamine (DA) receptors; assay: Blockade of apomorphine induced stereotypies and hyperactivity in rats; type: in vivo, Male Sprague-Dawley rats; settings: for ED50 Hyper-activity / ED50 Stereo-typies: i.p. 60 min prior to apomorphine hydrochloride 1 mg/kg s.c.; for ED50 Hyper-activity: dose reducing number of animals showing hyperactivity by 50% over 60 min observation; for ED50 Stereo-typies: dose reducing strength of stereotypies by 50% over 60 min observation
Text: The DA receptor blockade as measured by different in vitro anc in vivo techniques correlate roughly with the antipsychotic efficacy. The blockade of the behavioural effects induced by the DA receptor agonist apomorphine is highly correlated to the antipsychotic effect of various neuroleptics. The ability of potential neuroleptics to block the apomorphine induced behaviours may thus be a valuable predictor of the anti- psychotic efficacy in man.
Male Sprague-Dawley rats, weighing 250-300 g, were used. […] The compounds were injected intraperitoneally 60 min. prior to apomorphine hydrochloride (1 mg/kg dissolved in saline), which was injected subcutaneously into the neck. […] Directly after the injection the animals were placed in the cages, one in each cage. Scoring of the stereotypies was performed by a modified version (Fuxe et al. in Rhinencephale Neurotransmetteurs et Psychoses, by G. Masson, Paris 1977, p. 253) of the system introduced by Costall and Naylor (Eur. J. Pharmacol. 24 8 (1973).
The number of animals, displaying hyperactivity caused by apomorphine, was scored. Each group consisted of 6-8 animals. Saline controls were always run simultaneously. The EO50's for stereotypies are the doses which reduce the strength of the stereotypies by 50% over the observation period of 60 min. The Ed50's for hyperactivity are the doses which reduce the number of animals showing hyperactivity by 50% over the observation period of 60 min. EO50's were calculated from log dose-curves from 4-6 levels with 6-8 animals per dose level. The test compounds were dissolved in saline or water.

[2] = Heart effects: arterial blood pressure, heart rate and electrocardiograms after consecutive increasing intravenous doses in restrained rats; type: in vivo, Male Sprauge-Dawley rats; settings: for Minimum doses causing changes in: Cardiogram intervals PR / Minimum doses causing changes in: Cardiogram intervals QRS / Minimum doses causing changes in: Cardiogram intervals QT / Minimum doses causing changes in: Heart rate (Decrease) / Minimum doses causing changes in: Mean arterial blood pressure (Decrease): change of more than 15% from values before administration
Protocol: Male Sprauge-Dawley rats weighing 290-360 grams were used. The animals were prepared for recording the arterial blood pressure through a catheter implanted into the abdominal aorta and for injection of drugs through a catheter implanted into the abdominal vena cava. Both catheters were exteriorized at the base of the neck. At least five days were allowed for recovery after the operation.
The animals were kept immobilized in restraining cages during the experiment. The arterial blood pressure was continuously monitored on a Grass Model 7 Polygraph via a Statham P23Gc transducer. Electrocardiograms were taken from subcutaneously placed thin needle electrodes and recorded on a Mingograph 34 (Elema-Schänander AB, Sweden).
Groups of rats were given consecutive increasing intravenous doses of the test compounds from the dose scale: 0.25, 0.5, 1, 2, 4, 8, 16, 32 and 64 […]. The test compounds were injected over a period of 30 seconds at an interval of five minutes at doses of 0.25-8 […] and with an interval of 15 minutes at higher dose ranges.
The minimum doses that caused changes in mean arterial blood pressure, heart rate, PR, QRS and QT intervals of more than 15% from values before administration were arbitrarily defined as a drug effect.

[3] = i.p., rats, comparison in words

Compound	ED50 Hyper-activity [1] [µmol/kg]	ED50 Stereo-typies [1] [µmol/kg]	Minimum doses causing arrhythmias (Second degree AV-block) [2] [µmol/kg]	Minimum doses causing changes in: Cardiogram intervals PR [2] [µmol/kg]	Minimum doses causing changes in: Cardiogram intervals QRS [2] [µmol/kg]	Minimum doses causing changes in: Cardiogram intervals QT [2] [µmol/kg]	Minimum doses causing changes in: Heart rate (Decrease) [2] [µmol/kg]	Minimum doses causing changes in: Mean arterial blood pressure (Decrease) [2] [µmol/kg]	potency to block apomorphine induced hyperactivity compared with clozapine [1, 3]	potency to block the stereotypies compared with clozapine [1, 3]	activity against apomorphine induced behaviours (in words) ([1]; i.p., rats, summary of Table 1)
CN(C)CCCN1c2ccccc2Sc2ccc(Cl)cc21 [Chlorpromazine, reference compound]	6.2	6.2	–	–	–	–	–	–	–	–	–
CN(C)C1C=CC2(CC1)c1ccccc1CCc1ccc(Cl)cc12 (stereo not shown) [-N(CH3)2, reference compound]	6.4	35	2 to 4	2	>4	4	2	4	–	–	–
CN1CCN(C2=Nc3cc(Cl)ccc3Nc3ccccc32)CC1 [Clozapine, reference compound]	26	104	–	–	–	–	–	–	–	–	–
OCCN1CCN(C2C=CC3(CC2)c2ccccc2CCc2ccc(Cl)cc23)CC1 (stereo not shown) [Example 4]	24	70	64	32	16	16	16 to 32	8	as potent as clozapine	more potent than clozapine	–
CNC1C=CC2(CC1)c1ccccc1CCc1ccc(Cl)cc12 (stereo not shown) [Example 3, 3-Chloro-10,11-dihydro-N-methylspiro-[5H-dibenzo[a,d]-cyclohBptene-5,1'-cyclohex-2-Bn]-4'-amine]	15	65	16	16	8	16	16	8 to 16	–	–	active
